Measurements reported in patent US20240158446A1, “CYCLIC COMPOUND HAVING SELECTIVE INHIBITORY ACTION ON KRAS OVER HRAS AND NRAS” (CHUGAI SEIYAKU KABUSHIKI KAISHA, priority 2021, published 2024).
Like-named read-outs stand apart in the source and are kept apart here. Where a SMILES comes first, the peptide text is derived from it. Bridges are numbered along the chain shown (N, C = ends). [ ]: non-standard residue; d: D form. The star is where a group is joined. hPhe(3-Cl-4-CF3) = N[C@@H](CCc1ccc(C(F)(F)F)c(Cl)c1)C(=O)O; NPrPhe(4-CF3) = CCCN[C@@H](Cc1ccc(C(F)(F)F)cc1)C(=O)O; NMeAbu(4,4,4-F3) = CN[C@@H](CC(F)(F)F)C(=O)O; NMeGly(cPent) = CN[C@H](C(=O)O)C1CCCC1; Pro(4,4-F2) = O=C(O)[C@@H]1CC(F)(F)CN1; NMeD = CN[C@@H](CC(=O)O)C(=O)O; hPip = O=C(O)[C@@H]1CCCCCN1; Morpholide = C1CN(*)CCO1; Ac5c = NC1(C(=O)O)CCCC1; NEtG = CCNCC(=O)O; Sar = CNCC(=O)O

Key:
[1] = target: GDP-bound KRAS wild-type protein (Homo sapiens, UniProt P01116); assay: Binding to KRAS by surface plasmon resonance (SPR), Single Cycle Kinetics; settings: GDP-bound KRAS wild-type protein, read-out: KRAS KD
[2] = target: GDP-bound NRAS wild-type protein (Homo sapiens, UniProt P01111); assay: Binding to NRAS by surface plasmon resonance (SPR), Single Cycle Kinetics; settings: SPR, GDP-bound NRAS wild-type protein vs GDP-bound KRAS wild-type protein
[3] = target: GDP-bound HRAS wild-type protein (Homo sapiens, UniProt P01112); assay: Binding to HRAS by surface plasmon resonance (SPR), Single Cycle Kinetics; settings: SPR, GDP-bound HRAS wild-type protein vs GDP-bound KRAS wild-type protein
[4] = SPR Single Cycle Kinetics, 1:1 binding model

Chain of GDP-bound KRAS wild-type protein (P01116 whole entry): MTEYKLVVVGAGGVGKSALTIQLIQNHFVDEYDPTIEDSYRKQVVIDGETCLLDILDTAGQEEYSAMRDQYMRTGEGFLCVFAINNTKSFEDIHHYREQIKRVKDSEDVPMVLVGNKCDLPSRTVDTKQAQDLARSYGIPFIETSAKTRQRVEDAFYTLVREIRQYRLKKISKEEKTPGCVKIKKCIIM
Chain of GDP-bound NRAS wild-type protein (P01111 whole entry): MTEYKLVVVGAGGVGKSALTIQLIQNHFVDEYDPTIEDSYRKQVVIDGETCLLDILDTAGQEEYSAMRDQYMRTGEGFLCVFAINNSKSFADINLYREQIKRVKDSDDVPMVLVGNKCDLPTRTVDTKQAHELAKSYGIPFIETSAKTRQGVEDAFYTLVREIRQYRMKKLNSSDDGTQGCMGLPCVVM
Chain of GDP-bound HRAS wild-type protein (P01112 whole entry): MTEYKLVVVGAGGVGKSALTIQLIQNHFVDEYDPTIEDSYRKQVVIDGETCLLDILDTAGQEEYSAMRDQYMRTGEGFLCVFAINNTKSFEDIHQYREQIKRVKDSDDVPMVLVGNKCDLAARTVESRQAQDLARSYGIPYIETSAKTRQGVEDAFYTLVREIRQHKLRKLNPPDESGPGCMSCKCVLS

Compound | Kd [1, 4] [nM] | Kd ([1]; SPR, Single Cycle Kinetics) [nM] | NRAS/KRAS (ratio of KD value for NRAS to KD value for KRAS) [2] | HRAS/KRAS (ratio of KD value for HRAS to KD value for KRAS) [3] | NRAS/KRAS (ratio of KD value with respect to NRAS to KD value with respect to KRAS) [2] | HRAS/KRAS (ratio of KD value with respect to HRAS to KD value with respect to KRAS) [3]
CCCOC[C@H]1C(=O)N[C@@H]([C@@H](C)CC)C(=O)N(C2CC2)CC(=O)N(C)[C@H]2C/C=C\CCN(C2=O)[C@@H](Cc2ccc(C)cc2)C(=O)N(C)CC(=O)N[C@@H](CCc2ccc(C(F)(F)F)c(OC)c2)C(=O)N2C[C@H](OCC)C[C@H]2C(=O)N(C)C2(CCC2)C(=O)N(C)[C@@H](C(CC)CC)C(=O)N(C)[C@H](C(=O)N(C)C)CC(=O)N1C [PP2327] | – | 0.5 | A (a compound having 10 or more and less than 20 is denoted as A) | A (a compound having 10 or more and less than 20 is denoted as A) | – | –
CC[C@H](C)[C@@H]1NC(=O)[C@H](CC(C)C)N(C)C(=O)C[C@@H](C(=O)N(C)C)N(C)C(=O)[C@H](C2CCCC2)N(C)C(=O)C2(CCC2)NC(=O)[C@@H]2CCCN2C(=O)[C@H](CCc2cc(F)c(C(F)(F)F)c(F)c2)NC(=O)CN(C)C(=O)[C@H](Cc2ccc(C(F)(F)F)cc2)N2CCCCC[C@@H](C2=O)N(C)C(=O)CN(C)C1=O [PP0512] | 0.37 | – | – | – | B (a compound having 3 or more and less than 10 is denoted as B) | B (a compound having 3 or more and less than 10 is denoted as B)
CC[C@H](C)[C@@H]1NC(=O)[C@H](CC(C)C)N(C)C(=O)C[C@@H](C(=O)N2CCOCC2)N(C)C(=O)[C@H](C2CCCC2)N(C)C(=O)C(C)(C)NC(=O)[C@@H]2CCCN2C(=O)[C@H](CCc2cc(F)c(C(F)(F)F)c(F)c2)NC(=O)CN(C)C(=O)[C@H](Cc2ccc(C(F)(F)F)cc2)N2CCCCC[C@@H](C2=O)N(C)C(=O)CN(C)C1=O [PP0503] | 4.4 | – | – | – | A (a compound having 10 or more and less than 20 is denoted as A) | B (a compound having 3 or more and less than 10 is denoted as B)

More lines, main results first:

Kd [1, 4] [nM] | Kd ([1]; SPR, Single Cycle Kinetics) [nM] | Compound | NRAS/KRAS (ratio of KD value for NRAS to KD value for KRAS) [2] | HRAS/KRAS (ratio of KD value for HRAS to KD value for KRAS) [3] | NRAS/KRAS (ratio of KD value with respect to NRAS to KD value with respect to KRAS) [2] | HRAS/KRAS (ratio of KD value with respect to HRAS to KD value with respect to KRAS) [3]
0.13 | – | CCCN1C(=O)CN(C)C(=O)CN(C)C(=O)[C@H]([C@@H](C)CC)NC(=O)[C@H](CC(F)(F)F)N(C)C(=O)C[C@@H](C(=O)N2CCOCC2)N(C)C(=O)[C@H](C2CCCC2)N(C)C(=O)C2(CCCC2)NC(=O)[C@@H]2CC(F)(F)CN2C(=O)[C@H](CCc2ccc(C(F)(F)F)c(Cl)c2)NC(=O)CN(C)C(=O)[C@@H]1Cc1ccc(C(F)(F)F)cc1 [PP0199] ([NMeAbu(4,4,4-F3)]I[Sar][Sar][NPrPhe(4-CF3)][Sar][hPhe(3-Cl-4-CF3)][Pro(4,4-F2)][Ac5c][NMeGly(cPent)][NMeD]-Morpholide; lactam N-11) | B (a compound having 3 or more and less than 10 is denoted as B) | C (A compound having a KD ratio of 0.1 or more and less than 3 is denoted as C) | – | –
0.11 | – | CC[C@H](C)[C@@H]1NC(=O)[C@H](CC(C)C)N(CC)C(=O)C[C@@H](C(=O)N2CCOCC2)N(C)C(=O)[C@H](C2CCCC2)N(C)C(=O)C2(CCCC2)NC(=O)[C@@H]2CCCN2C(=O)[C@H](CCc2cc(F)c(C(F)(F)F)c(F)c2)NC(=O)CN(C)C(=O)[C@H](Cc2ccc(C(F)(F)F)cc2)N2CCCC[C@@H](C2=O)N(C)C(=O)CN(C)C1=O [PP0588] | – | – | B (a compound having 3 or more and less than 10 is denoted as B) | B (a compound having 3 or more and less than 10 is denoted as B)
2.2 | – | CCCN1C(=O)CN(C)C(=O)CN(CC)C(=O)[C@H]([C@@H](C)CC)NC(=O)[C@@H]2CCCCCN2C(=O)C[C@@H](C(=O)N2CCOCC2)N(C)C(=O)[C@H](C2CCCC2)N(C)C(=O)C2(CCCC2)NC(=O)[C@@H]2CCCN2C(=O)[C@H](CCc2ccc(C(F)(F)F)c(Cl)c2)NC(=O)CN(C)C(=O)[C@@H]1Cc1ccc(C(F)(F)F)cc1 [PP0289] ([hPip]I[NEtG][Sar][NPrPhe(4-CF3)][Sar][hPhe(3-Cl-4-CF3)]P[Ac5c][NMeGly(cPent)][NMeD]-Morpholide; lactam N-11) | B (a compound having 3 or more and less than 10 is denoted as B) | B (a compound having 3 or more and less than 10 is denoted as B) | – | –
